# Experimental data from ChEMBL document CHEMBL1129966, “Substituted indole-2-carboxylates as in vivo potent antagonists acting as the strychnine-insensitive glycine binding site” (J Med Chem, 1997).
# How the values were obtained:
# Mus musculus [1] = test: Effective dose to inhibit convulsions induced by NMDA in mice, when administered intravenous route.; type: functional
# [2] = target: Glutamate receptor ionotropic, NMDA 1 (Rattus norvegicus, UniProt P35439); test: Inhibition of [3H]glycine to glycine binding site, associated with the N-methyl-D-aspartate glutamate receptor 1 in crude synaptic membranes prepared from adult rat cerebral cortex.; type: cell membranes
# [3] = target: Glutamate receptor ionotropic, NMDA 1 (Rattus norvegicus) (UniProt P35439); test: Antagonistic activity by using [3H]TCP radioligand (non competitive inhibition) at strychnine-insensitive N-methyl-D-aspartate glutamate receptor 1
# Mus musculus [4] = test: Effective dose to inhibit convulsions induced by NMDA in mice, when administered peroral route.; type: functional; conditions: po
SMILES,Ki [2],also measured
O=c1[nH]c2cc(Cl)c(Cl)c([N+](=O)[O-])c2[nH]c1=O [LICOSTINEL],7.94 nM,ED50 (Mus musculus [1]): 0.21 mg/kg
O=C(O)c1[nH]c2cc(Cl)cc(Cl)c2c1/C=C/S(=O)(=O)Nc1ccccc1,794 nM,–
Nc1cccc(NC(=O)/C=C/c2c(C(=O)O)[nH]c3cc(Cl)cc(Cl)c23)c1,5.01 nM,–
Nc1ccccc1NC(=O)/C=C/c1c(C(=O)O)[nH]c2cc(Cl)cc(Cl)c12,3.16 nM,–
O=C(/C=C/c1c(C(=O)O)[nH]c2cc(Cl)cc(Cl)c12)Nc1ccc(Cl)c([N+](=O)[O-])c1,126 nM,–
O=C(/C=C/c1c(C(=O)O)[nH]c2cc(Cl)cc(Cl)c12)Nc1ccc(O)cc1,2 nM,–
O=C(/C=C/c1c(C(=O)O)[nH]c2cc(Cl)cc(Cl)c12)Nc1cccc([N+](=O)[O-])c1O,10 nM,–
O=C(/C=C/c1c(C(=O)O)[nH]c2cc(Cl)cc(Cl)c12)Nc1ccc(C(=O)O)cc1,63.1 nM,–
O=C(/C=C/c1c(C(=O)O)[nH]c2cc(Cl)cc(Cl)c12)Nc1ccccc1[N+](=O)[O-],25.1 nM,–
O=C(/C=C/c1c(C(=O)O)[nH]c2cc(Cl)cc(Cl)c12)Nc1ccc(C(F)(F)F)cc1,158 nM,–
NC(=O)Nc1ccc(NC(=O)/C=C/c2c(C(=O)O)[nH]c3cc(Cl)cc(Cl)c23)cc1,1.58 nM,–
O=C(/C=C/c1c(C(=O)O)[nH]c2cc(Cl)cc(Cl)c12)Nc1cccc([N+](=O)[O-])c1F,5.01 nM,–
O=C(/C=C/c1c(C(=O)O)[nH]c2cc(Cl)cc(Cl)c12)Nc1ccc(F)cc1[N+](=O)[O-],31.6 nM,–
O=C(/C=C/c1c(C(=O)O)[nH]c2cc(Cl)cc(Cl)c12)Nc1ccc([N+](=O)[O-])cc1,100 nM,–
O=C(O)CCc1c(C(=O)[O-])[nH]c2cc(Cl)cc(Cl)c12.[Na+],39.8 nM,ED50 (Mus musculus [1]): > 10 mg/kg
Nc1ccc(NC(=O)/C=C/c2c(C(=O)O)[nH]c3cc(Cl)cc(Cl)c23)cc1,1.26 nM,–

SMILES,Ki [2],also measured
O=C(/C=C/c1c(C(=O)O)[nH]c2cc(Cl)cc(Cl)c12)Nc1ccc(Nc2ccccc2)cc1,200 nM,–
CC(C)c1ccccc1NC(=O)/C=C/c1c(C(=O)O)[nH]c2cc(Cl)cc(Cl)c12,50.1 nM,–
CC(C)(C)OC(=O)/C=C/c1c(C(=O)O)[nH]c2cc(Cl)cc(Cl)c12,501 nM,–
O=c1[nH]c2cc(Cl)ccc2c(O)c1-c1cccc(Oc2ccccc2)c1,1 nM,ED50 (Mus musculus [1]): 0.78 mg/kg
CCN(CC)c1ccc(NC(=O)/C=C/c2c(C(=O)O)[nH]c3cc(Cl)cc(Cl)c23)cc1,100 nM,–
O=C(CCc1c(C(=O)[O-])[nH]c2cc(Cl)cc(Cl)c12)Nc1ccccc1.[Na+],25.1 nM,ED50 (Mus musculus [1]): 3.7 mg/kg
O=C(Nc1ccccc1)N[C@H]1C[C@H](C(=O)O)Nc2cc(Cl)cc(Cl)c21,6.31 nM,ED50 (Mus musculus [1]): 0.21 mg/kg
O=C(O)c1cc2c(Cl)cc(Cl)cc2[nH]1,2000 nM,–
O=C(/C=C/c1c(C(=O)[O-])[nH]c2cc(Cl)cc(Cl)c12)Nc1ccccc1.[Na+] [GAVESTINEL SODIUM],3.16 nM,pA2 [3]: 8.1; ED50 (Mus musculus [1]): 0.06 mg/kg; ED50 (Mus musculus [4]): 6 mg/kg
O=C(/C=C/c1c(C(=O)O)[nH]c2cc(Cl)cc(Cl)c12)Nc1cccc(O)c1,3.98 nM,–
O=C(O)/C=C/c1c(C(=O)[O-])[nH]c2cc(Cl)cc(Cl)c12.[Na+],20 nM,ED50 (Mus musculus [1]): 17.2 mg/kg; ED50 (Mus musculus [4]): > 200 mg/kg
O=C(/C=C/c1c(C(=O)[O-])[nH]c2cc(Cl)cc(Cl)c12)NCc1ccccc1.[Na+],126 nM,ED50 (Mus musculus [1]): > 30 mg/kg; ED50 (Mus musculus [4]): > 200 mg/kg
O=C(/C=C/c1c(C(=O)O)[nH]c2cc(Cl)cc(Cl)c12)Nc1ccc(F)cc1,6.31 nM,–
CN(C)c1ccc(NC(=O)/C=C/c2c(C(=O)O)[nH]c3cc(Cl)cc(Cl)c23)cc1,12.6 nM,–
COc1ccc(NC(=O)/C=C/c2c(C(=O)O)[nH]c3cc(Cl)cc(Cl)c23)c(C)c1,20 nM,–
